Assay results as given in US20260232812A1, “BIFUNCTIONAL MOLECULES FOR TARGETED PROTEIN DEGRADATION” (Amphista Therapeutics Limited, priority 2022, published 2026).

Key:
BRD9 [1] = target: T1, BRD9 (Homo sapiens, UniProt Q9H8M2); assay: Assay Protocol 2 - Degradation of BRD9 (IF) in MV4-11 cells; type: cell-based; parameters: host or cells: MV4-11; details: Assay Protocol 2: BRD9 immunofluorescence, 24 hours
T1 sequence (Q9H8M2 1-597): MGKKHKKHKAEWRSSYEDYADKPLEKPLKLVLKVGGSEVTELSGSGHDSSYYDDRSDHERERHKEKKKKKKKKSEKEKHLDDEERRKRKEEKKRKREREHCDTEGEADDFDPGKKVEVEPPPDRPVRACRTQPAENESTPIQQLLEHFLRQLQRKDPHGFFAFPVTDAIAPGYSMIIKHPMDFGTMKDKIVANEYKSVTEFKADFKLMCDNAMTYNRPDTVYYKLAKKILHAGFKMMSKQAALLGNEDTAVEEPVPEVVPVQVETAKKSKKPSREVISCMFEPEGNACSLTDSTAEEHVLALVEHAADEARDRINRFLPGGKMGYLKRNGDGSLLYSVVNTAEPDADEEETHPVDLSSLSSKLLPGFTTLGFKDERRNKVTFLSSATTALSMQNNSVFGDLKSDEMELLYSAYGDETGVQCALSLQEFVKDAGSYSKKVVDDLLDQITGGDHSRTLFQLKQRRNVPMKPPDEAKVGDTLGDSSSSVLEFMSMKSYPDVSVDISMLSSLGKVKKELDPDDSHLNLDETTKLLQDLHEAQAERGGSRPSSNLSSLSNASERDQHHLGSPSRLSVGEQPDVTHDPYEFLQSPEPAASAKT
Description: Assay Protocol 2—Degradation of BRD9 (IF)
A suspension of MV4-11 cells (ATCC CRL-9591) was prepared in phenol red-free assay media (IMDM Thermo Scientific 21056023+10% FBS ATCC 302025) and cells were seeded at 20,000 cells per well (45 μL) in sterile black poly-d-lysine coated 384 well plates (Greiner 781948). Compounds were prepared at 1000× final concentration in DMSO, diluted 1:100 in assay media, and 5 μL compound was added to each well of the cell plate. Cells were incubated for 24 hours at 37° C. with 5% CO2. All the following incubations for immunofluorescence staining were at room temperature. 15 μL of 16% PFA was added to each well (3.7% final concentration) and the cells were fixed for 15 min then washed twice with DPBS. Cells were permeabilised with 0.1% Triton X-100 for 10 min, Triton X-100 was removed, then blocked with 1% BSA in DPBS for 1 hour. Cells were stained with 25 μL anti-BRD9 E4Q3F antibody (CST 48306) diluted 1:25600 in 1% BSA in DPBS for 2-3 hours. Wells were washed twice with DPBS then incubated with 25 μL of 1% BSA containing a 1:1000 dilution of Anti-rabbit Alexa Fluor™ 647 secondary antibody (Thermo Scientific A^21244) and 1 μg/mL Hoechst nuclear counter stain (Abcam ab228551) for 1 hour. Wells were washed twice with DPBS prior to imaging on a Perkin Elmer Operetta CLS with 10× air lens. Images were processed using Harmony High-Content Imaging and Analysis Software (Perkin Elmer) and the mean contrast ratio of Alexa Fluor™ 647 in central nuclei was used to quantify BRD9 protein levels. Data was further analysed using Dotmatics software and % BRD9 remaining was calculated by normalisation to average data from high and low control wells (cells treated with DMSO or 100 nM CFT-8634 respectively).

BRD9 [2] = target: T1, BRD9; assay: Assay Protocol 1 - Degradation of HiBit-BRD9 in HEK293; type: cell-based; details: titration up to 10 μM; for Dmax: HEK293, Assay Protocol 1: HiBit-BRD9 in HEK293, 6 h
Description: Assay Protocol 1—Degradation of HiBit-BRD9 in HEK293
HEK293 stably expressing LgBit and containing a HiBit insertion for BRD9 were plated in 384-well tissue culture plates at a density of 8×10^3 per well in a volume of 36 μL and incubated overnight at 37° C. and 5% CO2. Wells were treated with test compounds (11 pt titration up to 10 μM) for 6 h prior to addition of Nano-Glo® Hibit Lytic buffer (1:50 substrate and 1:100 LgBit protein) and reading on a PheraSTAR. Degradation data was plotted and analysed using Prism 8 (Graphpad).

[3] = Assay Protocol 1: HiBit-BRD9 in HEK293, 6 h

| DC50 (BRD9 [1]) | DC50 (BRD9 [2]; [3]) | Structure (SMILES) | Dmax (BRD9 [1]) | other results |
| --- | --- | --- | --- | --- |
| 25 to 200 nM |  | COc1cc(-c2cn(C)c(=O)c(C)c2C)cc(OC)c1C(=O)N1CC2CC1CN2C(=O)/C(C#N)=C/C(C)(C)C (mixture of isomers) [BRD9t, (E/Z)-2-(5-(2,6-dimethoxy-4-(1,4,5-trimethyl-6-oxo-1,6-dihydropyridin-3-yl)benzoyl)-2,5-diazabicyclo[2.2.1]heptane-2-carbonyl)-4,4-dimethylpent-2-enenitrile] |  |  |
| < 25 nM |  | COc1cc(-c2cn(C)c(=O)c(C)c2C)cc(OC)c1CN1CCN(C(=O)C2CC(C)CN(C(=O)/C(C#N)=C/C(C)(C)C)C2)CC1 (stereo not drawn) [BRD9ba, (E)-2-(3-(4-(2,6-dimethoxy-4-(1,4,5-trimethyl-6-oxo-1,6-dihydropyridin-3-yl)benzyl)piperazine-1-carbonyl)-5-methylpiperidine-1-carbonyl)-4,4-dimethylpent-2-enenitrile] | ≥ 70% |  |
| < 25 nM | < 25 nM | COc1cc(-c2cn(C)c(=O)c(C)c2C)cc(OC)c1CN1CCC2(CC1)CCN(C(=O)/C(C#N)=C/c1cccc(Br)n1)CC2 [BRD9r, (E/Z)-3-(6-bromopyridin-2-yl)-2-(9-(2,6-dimethoxy-4-(1,4,5-trimethyl-6-oxo-1,6-dihydropyridin-3-yl)benzyl)-3,9-diazaspiro[5.5]undecane-3-carbonyl)acrylonitrile] |  | Dmax (BRD9 [2]): ≥ 70% |
| < 25 nM | < 25 nM | COc1cc(-c2cn(C)c(=O)c(C)c2C)cc(OC)c1CN(C)C1CCN(C(=O)/C(C#N)=C/C(C)(C)C)CC1 [BRD9d, (E/Z)-2-(4-((2,6-dimethoxy-4-(1,4,5-trimethyl-6-oxo-1,6-dihydropyridin-3-yl)benzyl)(methyl)amino)piperidine-1-carbonyl)-4,4-dimethylpent-2-enenitrile] |  |  |
| 25 to 200 nM |  | COc1cc(-c2cn(C)c(=O)c(C)c2C)cc(OC)c1C(=O)N1CCCN(C(=O)/C(C#N)=C/C(C)(C)C)CC1 [BRD9v, (E/Z)-2-(4-(2,6-dimethoxy-4-(1,4,5-trimethyl-6-oxo-1,6-dihydropyridin-3-yl)benzoyl)-1,4-diazepane-1-carbonyl)-4,4-dimethylpent-2-enenitrile] |  |  |
| < 25 nM |  | COc1ccc([C@@H]2CN(C(=O)/C(C#N)=C/c3nccs3)C[C@H]2C(=O)N2CCN(Cc3c(OC)cc(-c4cn(C)c(=O)c(C)c4C)cc3OC)CC2)cc1 [BRD9be] |  | Dmax^2 (BRD9 [1]): +++ (+++ = ≥70%); Dmax^1 (BRD9 [2]; [3]): ++ (++ = ≥50% and <70%) |
|  | > 200 nM | COc1cc(-c2cn(C)c(=O)c(C)c2C)cc(OC)c1CN1CCN(C(=O)/C(C#N)=C/c2nccs2)CC1 [BRD9g, (E/Z)-2-(4-(2,6-dimethoxy-4-(1,4,5-trimethyl-6-oxo-1,6-dihydropyridin-3-yl)benzyl)piperazine-1-carbonyl)-3-(thiazol-2-yl)acrylonitrile] |  | Dmax (BRD9 [2]): 30 to 50% |
| > 200 nM |  | COc1cc(-c2cn(C)c(=O)c(C)c2C)cc(OC)c1CN1CC2CC1CN2C(=O)/C(C#N)=C/c1nccs1 (mixture of isomers) [BRD9i, (E/Z)-2-(5-(2,6-dimethoxy-4-(1,4,5-trimethyl-6-oxo-1,6-dihydropyridin-3-yl)benzyl)-2,5-diazabicyclo[2.2.1]heptane-2-carbonyl)-3-(thiazol-2-yl)acrylonitrile] | 30 to 50% |  |
| > 200 nM |  | COc1cc(-c2cn(C)c(=O)c(C)c2C)cc(OC)c1CN1CC2CC1CN2C(=O)/C(C#N)=C/C(C)(C)C (mixture of isomers) [BRD9b, (E/Z)-2-(5-(2,6-dimethoxy-4-(1,4,5-trimethyl-6-oxo-1,6-dihydropyridin-3-yl)benzyl)-2,5-diazabicyclo[2.2.1]heptane-2-carbonyl)-4,4-dimethylpent-2-enenitrile] |  |  |
|  | 25 to 200 nM | COc1cc(-c2cn(C)c(=O)c3ccsc23)cc(OC)c1CN1CCN(C(=O)/C(C#N)=C/C(C)(C)C)CC1 [BRD9w, (E/Z)-2-(4-(2,6-dimethoxy-4-(5-methyl-4-oxo-4,5-dihydrothieno[3,2-c]pyridin-7-yl)benzyl)piperazine-1-carbonyl)-4,4-dimethylpent-2-enenitrile] |  |  |
|  |  | COc1cc(-c2cn(C)c(=O)c(C)c2C)cc(OC)c1CN1CC2CC(C1)N2C(=O)/C(C#N)=C/c1cccc(Br)n1 (mixture of isomers) [BRD9m, (E/Z)-3-(6-bromopyridin-2-yl)-2-(3-(2,6-dimethoxy-4-(1,4,5-trimethyl-6-oxo-1,6-dihydropyridin-3-yl)benzyl)-3,6-diazabicyclo[3.1.1]heptane-6-carbonyl)acrylonitrile] | ≥ 70% |  |
| 25 to 200 nM |  | COc1cc(-c2cn(C)c(=O)c(C)c2C)cc(OC)c1C(=O)N1CCN(C(=O)/C(C#N)=C/C(C)(C)C)CC1 [BRD9s, (E/Z)-2-(4-(2,6-dimethoxy-4-(1,4,5-trimethyl-6-oxo-1,6-dihydropyridin-3-yl)benzoyl)piperazine-1-carbonyl)-4,4-dimethylpent-2-enenitrile] |  |  |
| 25 to 200 nM |  | COc1cc(-c2cn(C)c(=O)c(C)c2C)cc(OC)c1CN1C[C@@H](C)N(C(=O)/C(C#N)=C/C(C)(C)C)C[C@@H]1C [BRD9ad, (E)-2-((2R,5S)-4-(2,6-dimethoxy-4-(1,4,5-trimethyl-6-oxo-1,6-dihydropyridin-3-yl)benzyl)-2,5-dimethylpiperazine-1-carbonyl)-4,4-dimethylpent-2-enenitrile] | 50 to 70% |  |

| Structure (SMILES) | DC50 (BRD9 [1]) | DC50 (BRD9 [2]; [3]) | Dmax (BRD9 [1]) | other results |
| --- | --- | --- | --- | --- |
| COc1cc(-c2cn(C)c(=O)c(C)c2C)cc(OC)c1CN1C2CC1CN(C(=O)/C(C#N)=C/C1(F)CC1)C2 [BRD9ag, (E)-2-(6-(2,6-dimethoxy-4-(1,4,5-trimethyl-6-oxo-1,6-dihydropyridin-3-yl)benzyl)-3,6-diazabicyclo[3.1.1]heptane-3-carbonyl)-3-(1-fluorocyclopropyl)acrylonitrile] | < 25 nM |  | ≥ 70% |  |
| COc1cc(-c2cn(C)c(=O)c(C)c2C)cc(OC)c1CN1CC2CCC(C1)N2C(=O)/C(C#N)=C/c1nccs1 (mixture of isomers) [BRD9q, (E/Z)-2-(3-(2,6-dimethoxy-4-(1,4,5-trimethyl-6-oxo-1,6-dihydropyridin-3-yl)benzyl)-3,8-diazabicyclo[3.2.1]octane-8-carbonyl)-3-(thiazol-2-yl)acrylonitrile] | > 200 nM | > 200 nM | 50 to 70% |  |
| COc1cc(-c2cn(C)c(=O)c(C)c2C)cc(OC)c1CN1CC2CC(C1)N2C(=O)/C(C#N)=C/c1nccs1 (mixture of isomers) [BRD9l, (E/Z)-2-(3-(2,6-dimethoxy-4-(1,4,5-trimethyl-6-oxo-1,6-dihydropyridin-3-yl)benzyl)-3,6-diazabicyclo[3.1.1]heptane-6-carbonyl)-3-(thiazol-2-yl)acrylonitrile] |  | > 200 nM | 30 to 50% |  |
| COc1cc(-c2cn(C)c(=O)c(C)c2C)cc(OC)c1CN1C2CC1CN(C(=O)/C(C#N)=C/C1(C(F)(F)F)CCC1)C2 (mixture of isomers) [BRD9p, (E/Z)-2-(6-(2,6-dimethoxy-4-(1,4,5-trimethyl-6-oxo-1,6-dihydropyridin-3-yl)benzyl)-3,6-diazabicyclo[3.1.1]heptane-3-carbonyl)-3-(1-(trifluoromethyl)cyclobutyl)acrylonitrile] | 25 to 200 nM |  | 50 to 70% |  |
| COc1cc(-c2cn(C)c(=O)c(C)c2C)cc(OC)c1CN1C2CC1CN(C(=O)/C(C#N)=C/c1cccc(C(F)(F)F)n1)C2 [BRD9af, (E)-2-(6-(2,6-dimethoxy-4-(1,4,5-trimethyl-6-oxo-1,6-dihydropyridin-3-yl)benzyl)-3,6-diazabicyclo[3.1.1]heptane-3-carbonyl)-3-(6-(trifluoromethyl)pyridin-2-yl)acrylonitrile] | < 25 nM |  | ≥ 70% |  |
